Source: US11161848B2, “Purinones as ubiquitin-specific protease 1 inhibitors” (FORMA Therapeutics, Inc., priority 2015, dated 2021)

Target: USP1, construct USP1 (I-785, GG670, 671AA)/UAF1 (I-677)-Flag (Homo sapiens (Human), UniProt O94782, G670A/G671A)
Assay: Ubiquitin-Rhodamine 110 assay for USP1 activity, follow-up IC50 format
Type: biochemical

Sequence of USP1, construct USP1 (I-785, GG670, 671AA)/UAF1 (I-677)-Flag (O94782 whole entry G670A/G671A): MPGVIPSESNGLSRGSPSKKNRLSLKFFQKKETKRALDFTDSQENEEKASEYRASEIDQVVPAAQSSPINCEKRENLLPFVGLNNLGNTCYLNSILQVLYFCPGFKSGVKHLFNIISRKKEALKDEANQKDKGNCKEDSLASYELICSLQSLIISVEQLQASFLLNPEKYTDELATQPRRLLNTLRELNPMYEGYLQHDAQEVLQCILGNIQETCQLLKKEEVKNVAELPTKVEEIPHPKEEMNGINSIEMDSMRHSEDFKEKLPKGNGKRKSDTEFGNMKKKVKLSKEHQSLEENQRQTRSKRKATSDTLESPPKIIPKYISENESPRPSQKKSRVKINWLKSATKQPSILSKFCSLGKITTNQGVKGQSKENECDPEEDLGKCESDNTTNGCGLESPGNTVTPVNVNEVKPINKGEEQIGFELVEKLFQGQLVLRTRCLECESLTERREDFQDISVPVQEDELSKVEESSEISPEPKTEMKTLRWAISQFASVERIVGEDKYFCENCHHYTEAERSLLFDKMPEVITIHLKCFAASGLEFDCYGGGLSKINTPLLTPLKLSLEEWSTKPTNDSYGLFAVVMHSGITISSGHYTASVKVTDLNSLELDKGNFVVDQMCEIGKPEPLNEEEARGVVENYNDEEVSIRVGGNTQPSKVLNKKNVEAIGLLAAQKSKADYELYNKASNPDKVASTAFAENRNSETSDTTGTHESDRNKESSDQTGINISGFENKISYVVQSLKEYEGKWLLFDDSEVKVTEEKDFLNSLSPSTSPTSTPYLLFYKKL
Sequence of USP1, construct USP1 (I-785, GG670, 671AA)/UAF1 (I-677)-Flag (Q8TAF3 whole entry partner): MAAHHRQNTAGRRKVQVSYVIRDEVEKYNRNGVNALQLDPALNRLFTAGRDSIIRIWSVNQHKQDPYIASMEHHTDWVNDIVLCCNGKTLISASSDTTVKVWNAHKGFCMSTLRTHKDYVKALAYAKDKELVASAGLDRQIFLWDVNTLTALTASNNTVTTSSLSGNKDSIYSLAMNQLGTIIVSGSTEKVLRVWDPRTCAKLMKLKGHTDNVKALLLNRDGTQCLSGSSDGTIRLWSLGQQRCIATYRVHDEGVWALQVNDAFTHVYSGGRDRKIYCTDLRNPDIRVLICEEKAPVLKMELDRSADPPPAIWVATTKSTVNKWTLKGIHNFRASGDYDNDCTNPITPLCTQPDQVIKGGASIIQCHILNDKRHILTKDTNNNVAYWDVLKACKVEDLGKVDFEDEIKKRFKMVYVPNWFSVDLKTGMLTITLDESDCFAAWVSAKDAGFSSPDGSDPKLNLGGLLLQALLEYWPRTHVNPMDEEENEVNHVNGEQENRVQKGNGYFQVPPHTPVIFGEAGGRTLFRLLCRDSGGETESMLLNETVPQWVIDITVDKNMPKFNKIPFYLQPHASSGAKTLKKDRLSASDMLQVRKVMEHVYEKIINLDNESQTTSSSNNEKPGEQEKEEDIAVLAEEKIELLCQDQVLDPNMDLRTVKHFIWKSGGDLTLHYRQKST

Substance: 9-(4-(1H-pyrazol-1-yl)benzyl)-2-(2-cyclopropylphenyl)-7,9- [Compound I-94]
- IC50: < 50 nM
